From ChEMBL document CHEMBL1128775, “Specific affinity labeling of opioid receptors in rat brain by S-activated sulfhydryldihydromorphine analogs” (Bioorg Med Chem Lett, 1995)

Experiments:
Assay type in all cases: tissue-based
Mu-type opioid receptor [1] = biological target: T1, Mu-type opioid receptor (Rattus norvegicus, UniProt P33535); experiment: Compound was evaluated for its binding affinity to mu opioid receptors in rat brain
[2] = biological target: T2, Delta-type opioid receptor (Rattus norvegicus, UniProt P33533); experiment: Ability to displace [3H][D-Ser2,Leu5]enkephalin-Thr ([3H]DSLET) from Opioid receptor delta 1 in rat brain
T2 sequence (P33533 whole entry): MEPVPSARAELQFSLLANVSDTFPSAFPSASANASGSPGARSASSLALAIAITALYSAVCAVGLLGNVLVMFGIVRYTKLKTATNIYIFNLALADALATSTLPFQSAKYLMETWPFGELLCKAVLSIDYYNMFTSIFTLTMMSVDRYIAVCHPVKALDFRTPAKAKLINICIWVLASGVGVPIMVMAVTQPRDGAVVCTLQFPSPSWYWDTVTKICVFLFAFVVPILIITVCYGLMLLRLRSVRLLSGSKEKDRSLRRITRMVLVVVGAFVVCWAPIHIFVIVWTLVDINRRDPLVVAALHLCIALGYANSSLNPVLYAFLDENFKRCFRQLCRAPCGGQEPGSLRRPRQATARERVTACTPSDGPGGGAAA

Mu-type opioid receptor [3] = biological target: T1, Mu-type opioid receptor; experiment: Ability to displace [3H][D-Ala2,MePhe4,Gly-ol5]enkephalin ([3H]DAGO) from mu opioid receptors in rat brain
[4] = biological target: T2, Delta-type opioid receptor; experiment: Compound was evaluated for its binding affinity to Opioid receptor delta 1 in rat brain

T1 sequence (P33535 whole entry): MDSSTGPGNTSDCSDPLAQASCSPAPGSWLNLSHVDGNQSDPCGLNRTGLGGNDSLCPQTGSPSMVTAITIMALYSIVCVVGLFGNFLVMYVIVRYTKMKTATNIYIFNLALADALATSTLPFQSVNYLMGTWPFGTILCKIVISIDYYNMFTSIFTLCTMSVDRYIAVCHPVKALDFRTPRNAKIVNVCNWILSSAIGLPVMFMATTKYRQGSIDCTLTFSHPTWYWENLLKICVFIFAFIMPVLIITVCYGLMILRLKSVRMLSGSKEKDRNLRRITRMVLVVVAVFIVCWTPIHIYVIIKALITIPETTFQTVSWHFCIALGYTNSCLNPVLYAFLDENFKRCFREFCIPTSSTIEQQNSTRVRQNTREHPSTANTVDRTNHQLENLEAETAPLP

Row | Compound | EC50 (Mu-type opioid receptor [1]) [nM] | IC50 [2] [nM] | IC50 (Mu-type opioid receptor [3]) [nM] | EC50 [4] [nM]
1 | CN1CC[C@]23c4c5ccc(O)c4O[C@H]2[C@@H](O)C[C@H](SSc2ccc([N+](=O)[O-])cn2)C3[C@H]1C5 (stereo partly drawn) | 1700 | 67.9 | 58.1 | 1200
2 | CN1CC[C@]23c4c5ccc(O)c4O[C@H]2[C@H](SSc2ccc([N+](=O)[O-])cn2)CCC3C1C5 (stereo partly drawn) | 58.1 | 206 | 31.1 | 402
